The values below come from patent US20100184703A1, “USE OF PEPTIDE DERIVATIVES FOR TREATING PATHOLOGIES RESULTING FROM ISCHEMIA” (CHIESI FARMACEUTICI S.p.A., priority 2007, published 2010).

In assay [1] the test system is caspase-3. Description: Dosage of caspase-3 activity in myocardial tissue, chronic ischemia (PMI) model. The assay is classed as in vivo, rat. The note with it: PMI 72 h. The procedure: (§1) The analyses were performed on 2 myocardial ischemia models: a chronic ischemia model and an acute ischemia model, followed by myocardial reperfusion after 30 min of occlusion.
(§2) Said models were realized with Wistar male rats (180-220 g). The coronary artery was ligatured according to Pfeffer et al protocol.
(§3) Briefly, the rats were anaesthetized by intraperitoneal administration of a mixture of Ketamine (150 mg/kg) and Xylazine (15 mg/kg), then intubated and mechanically ventilated. The animals were submitted to a left and median thoracotomy. An occlusion of the coronary artery was done with a silk wire (size: 7.0) at the more proximal point and below the auricle.
(§4) In the case of chronic ischemia, the ligature was maintained and the rib cage of the animal reclosed (PMI model for post myocardial infarction).
The animals were sacrificed by a pentobarbital lethal injection. […]
(§5) The supernatant was taken and divided into 2 tubes for of each sample. The tubes were placed at −80° C. before performing the spectrophotometric proteic dosage (BCA: cupper (II) sulphate+solution A of bicinchronic acid, DO measured at 550 nm) in transparent, with flat bottom, 96-well plates. […]

Assay [2] deals with ischemiated and re-perfused hearts. Description: Morphology of the hearts after ischemia-reperfusion. The assay is classed as in vivo, rat. To be noted: 30 min occlusion, IP injection 15 min before re-perfusion, 10 days after infarct. The procedure: (§6) In the case of reperfusion ischemia model (IR model), the silk wire was untied after 30 min of occlusion. The artery was then cleared and the myocardial territory reperfused. The control animals (sham operated) were submitted to the same surgery protocol as the above animals, but the silk wire was passed under the coronary without making any ligature.
The animals were sacrificed by a lethal injection of pentobarbital. The heart was excised and perfused 2-3 min. using Langendorf reverse route and a calcium-free washing solution (NaCl 117, KCl 5.7, NaHCO3 4.4, KH2PO4 1.5, MgCl2 1.7, HEPES 21, glucose 11, taurine 20, pH 7.2 adjusted to NaOH). The solution was then replaced by a PBS solution at 4% of PFA (about 10 ml). The heart was immersed in this fixation solution for about 1 h, and then washed with PBS 4%.
The animals were submitted to an occlusion of the left coronary artery during 30 min.
15 min before the re-perfusion, the animals were treated by an IP injection of D1 or DMSO. The animals were sacrificed after 72 h, 10 days after re-perfusion for an histological analysis of the hearts. The morphology of the hearts (PFA fixed 4%) 10 days after infarct is illustrated by FIG. 7.

Assay [3] relates to ANF, BNP, fibronectin, β-MHC, TNFR1, TNFR2, TNFα, caspase-2 mRNA. Description: Quantitative RT-PCR of heart failure, fibrosis, hypertrophy and TNFα signaling markers after ischemia/reperfusion. The assay is classed as in vivo, rat. To be noted: IR model; for mRNA expression level of TNFα / mRNA expression level of TNFα receptor 1 (TNFR1) / mRNA expression level of TNFα receptor 2 (TNFR2) / mRNA expression level of caspase-2: increase in vehicle-injected animals; for mRNA expression level of β-Myosin Heavy Chain (β-MHC): marker for hypertrophy development; for mRNA expression level of fibronectin: marker of fibrosis development; for mRNA expression level of Atrial Natriuretic Factor (ANF) / mRNA expression level of brain natriuretic peptide (BNP): marker of heart failure. The procedure:
In a second series of experiments, quantitative RT-PCR was performed to evaluate the level of expression of 2 markers of heart failure, Atrial Natriuretic Factor (ANF) and Brain Natriuretic Factor (BNP) as well as a marker of myocardial fibrosis, fibronectine, and myocardial hypertrophy, βMHC. […] B. mRNA expression levels of fibronectin a marker of fibrosis development, and β-Myosin Heavy Chain (β-MHC) a marker for hypertrophy development

Assay [4] concerns the target T1, caspase-3 (Rattus norvegicus, UniProt P55213).
T1 construct: from tissue; host or cells: rat myocardium (left ventricle, right ventricle, septum, apex) extracts
T1 sequence (P55213 29-175 limits assumed): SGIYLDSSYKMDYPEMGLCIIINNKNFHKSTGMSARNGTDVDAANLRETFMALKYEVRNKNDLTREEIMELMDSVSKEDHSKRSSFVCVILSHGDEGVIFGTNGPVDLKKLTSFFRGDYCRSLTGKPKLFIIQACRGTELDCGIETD
T1 sequence (P55213 176-277 limits assumed): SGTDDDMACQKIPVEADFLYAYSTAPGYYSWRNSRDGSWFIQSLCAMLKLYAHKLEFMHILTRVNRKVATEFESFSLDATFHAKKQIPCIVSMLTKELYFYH
Description: Dosage of caspase-3 activity in myocardial tissue, reperfusion ischemia (IR) model. It counts as in vivo. The note with it: administered 15 min before the reperfusion, VGZI, VD, Apex and VGZNI. The procedure: as §1, §2, §3, §6
The animals were sacrificed by a pentobarbital lethal injection. The heart was excised and perfused about 5 min by Langerdorf reverse way using a calcium-free washing solution (in mM: NaCl 117 mM, KCl 5.7, NaHCO3 4.4, KH2PO4 1.5, MgCl2 1.7, HEPES 21, glucose 11, taurine 20, pH 7.2 adjusted with NaOH). The heart was then placed into a dissection tank and the different myocardial territories were taken (i.e. right ventricle (VD), septum, Apex, left ventricle (selectively in infarcted area (VGZI) and non-infarcted area (VGZNI)). Each fragment of tissue was rapidly frozen in liquid nitrogen and kept at −80° C.
Each tissue was then thawed and about 1-2 mm^3 was taken. […]
as §5

Assay [5] relates to rats with permanent ligature of the left coronary artery (PMI). Description: Survival of animals after chronic ischemia (PMI). The note with it: intraperitoneal injection 5-15 min before occlusion. The assay is classed as in vivo, rat. How it is done:
as §1, §2, §3, §4
The effect of the blocking of the caspase activity by Q-VD-OPH or by D1 on animals survival […] after infarction are given on FIG. 3. (A) over a period of 140 days; (B) the injection of the inhibitors or vehicle (DMSO) was carried out by intraperitoneal route 5-15 min before the occlusion of the coronary artery.
The animals having undergone a permanent ligature of the left coronary artery (PMI) were maintained alive during 4-5 months before performing the in vivo and ex vivo functional exploration. The death of the animals during this period was followed up.

“Also recorded” adds a separate entry of the source. Peptide text beside a SMILES is read from it. * marks the point of attachment. X1 = COC(=O)CC(N*)C(=O)COc1c(F)cccc1F; Quinaldoyl = O=C(c1ccc2ccccc2n1)*

As to `COC(=O)CC(NC(=O)[C@H](C)NC(=O)[C@@H](NC(=O)[C@H](CC(=O)OC)NC(=O)[C@@H](NC(=O)c1ccc2ccccc2n1)C(C)C)C(C)C)C(=O)COc1c(F)cccc1F` (stereo partly drawn) [D1, (3S,6S,9S,12S)-methyl 15-(2-(2,6-difluorophenoxy)acetyl)-3,9-diisopropyl-6-(2-methoxy-2-oxoethyl)-12-methyl-1,4,7,10,13-pentaoxo-1-(quinolin-2-yl)-2,5,8,11,14-pentaazaheptadecan-17-oate] (Quinaldoyl-VD(OMe)VA-X1), the caspase-3 activity entry in assay [1] (pre-treated rats, 0.01 or 1 mg/kg) is on record as “inhibition of the caspase-3 activity”. In assay [1] (right ventricular (RV)), the caspase-3 basal activity entry is “weak inhibition”. Moreover, in assay [2], the “heart size (cardiac hypertrophy)” value was “prevents cardiac hypertrophy”. Besides, in assay [3], the “mRNA expression level of TNFα” value is on record as “prevented”, the “mRNA expression level of TNFα receptor 1 (TNFR1)” value was “prevented”, the “mRNA expression level of TNFα receptor 2 (TNFR2)” value was “prevented” and the “mRNA expression level of caspase-2” value is given as “prevented”. Also, in assay [3], the “mRNA expression level of β-Myosin Heavy Chain (β-MHC)” value is “blocked”, the “mRNA expression level of fibronectin” value is listed as “blocked”, the “mRNA expression level of Atrial Natriuretic Factor (ANF)” value is “comparable to sham-operated animals” and the “mRNA expression level of brain natriuretic peptide (BNP)” value is listed as “comparable to sham-operated animals”. The caspase-3 activity result in assay [4] was “normalization of the activity; also recorded: prevents the further activation”.

For the compound `CC(C)[C@H](NC(=O)c1ccc2ccccc2n1)C(=O)N[C@@H](CC(=O)O)C(=O)COc1c(F)cccc1F` [Q-VD-OPH], in assay [3], the “mRNA expression level of TNFα” value is reported as “prevented”, the “mRNA expression level of TNFα receptor 1 (TNFR1)” value was “prevented”, the “mRNA expression level of TNFα receptor 2 (TNFR2)” value was “prevented” and the “mRNA expression level of caspase-2” value is recorded as “prevented”. In assay [3], the “mRNA expression level of β-Myosin Heavy Chain (β-MHC)” value is “blocked”, the “mRNA expression level of fibronectin” value was “blocked”, the “mRNA expression level of Atrial Natriuretic Factor (ANF)” value was “comparable to sham-operated animals” and the “mRNA expression level of brain natriuretic peptide (BNP)” value is listed as “comparable to sham-operated animals”. In addition, the caspase-3 activity entry in assay [4] was “inhibits the activity of both caspases”. Further, in assay [4] (listed as QVDOPH), the caspase-3 activity entry was “normalization of the activity”. For the same compound, in assay [5], the “animal survival over about 140 days post-infarctus” value was “survival curve superimposes on the one of the PMI group”.
